Assay results: patent US20040259173A1, “Method of determining target protein of drug” (priority 2001, published 2004)

What was measured:
[1] = tested on: proteins in cell lysate of HCT116; assay: Protease digestion assay of HCT116 cell lysate, SDS-PAGE with Coomassie Brilliant Blue staining; assay type: biochemical, human; conditions: UCS15A 0-300 μmol/L, 37° C. for 12 hours, endogenous protease
Experimental: (§1) By using Dulbecco's modification of Eagle's medium (DMEM) containing 10% fetal bovine serum, human colon tumor cell line HCT116 (ATCC number CCL-247) was cultured on 100 mm diameter dishes for cell culturing in a CO2 incubator at 37° C. under 5% CO2 condition, and proliferated by subculture with division into five portions every 3 days. The culture medium was removed from three HCT116 cell dishes on the third day from the subculture, and cells were washed by addition and successive removal of 10 ml of ice-cooled PBS. To these cells, 10 mL of RSB (10 mmol/L Tris-hydrochloride pH7.6, 10 mmol/L NaCl, 1.5 mmol/L MgCl2) having a low osmotic pressure was added. After the cells were put on ice for 10 minutes to allow expansion, the cells were detached from the dishes and put into 15 mL volume Dounce homogenizer together with the already added RBS. The cells were disrupted by 50 strokes of a pestle. This cell lysate was centrifuged at 4° C., 15,000 rpm for 30 minutes. The obtained supernatant was collected, and divided into ten 1 mL aliquots.
UCS15A was isolated and purified from Streptmyces actinobacterium, according to the descriptions in Japanese Published Unexamined Patent Application No. 58-116686, and a dimethylsulfoxide (DMSO) solution at a concentration of 10 mmol/L was prepared. […]

[2] = tested on: bone resorption; conditions: cited from earlier work
[3] = biological target: src and Sam68 (Homo sapiens, UniProt Q07666); conditions: cited from earlier work
[4] = biological target: T1, Sam68 (Homo sapiens, UniProt Q07666); assay: Protease digestion assay with specific detection of Sam68 by Western blotting; assay type: biochemical; conditions: HCT116 cell lysate, 37° C. for 12 hours
T1 construct: endogenous in cells; host or cells: HCT116 (ATCC CCL-247) cell lysate
Experimental: as §1, with “The obtained supernatant was collected, and divided into ten 1 mL aliquots.” left out
Sam68 in the cell lysate was detected by Western blotting as described below. […]
When the protease digestion assay described in (2) was conducted, a protease inhibitor cocktail (Complete; manufactured by Roche) which can inhibit wide variety of proteases was added along with UCS15A, and the same reaction was proceeded. After the electrophoresis, Sam68 was detected by Western blotting in a same manner to that of (3). […]

[5] = tested on: signal transduction of tyrosine kinase src; conditions: cited from earlier work
[6] = biological target: src (Homo sapiens, UniProt P12931); conditions: cited from earlier work

T1 sequence (Q07666 whole entry): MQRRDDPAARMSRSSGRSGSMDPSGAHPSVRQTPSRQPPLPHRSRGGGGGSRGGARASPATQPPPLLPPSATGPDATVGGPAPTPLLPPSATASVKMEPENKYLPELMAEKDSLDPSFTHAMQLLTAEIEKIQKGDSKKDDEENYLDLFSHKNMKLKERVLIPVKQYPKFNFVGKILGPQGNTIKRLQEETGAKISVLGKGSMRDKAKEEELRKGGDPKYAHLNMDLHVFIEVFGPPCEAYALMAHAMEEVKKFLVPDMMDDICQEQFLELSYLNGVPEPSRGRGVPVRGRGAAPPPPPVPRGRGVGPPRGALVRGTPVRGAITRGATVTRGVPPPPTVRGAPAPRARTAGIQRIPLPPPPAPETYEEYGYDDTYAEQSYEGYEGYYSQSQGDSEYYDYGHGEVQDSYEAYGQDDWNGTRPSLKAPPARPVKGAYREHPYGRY
src and Sam68, sequence (Q07666 whole entry, species assumed): as the sequence (Q07666 whole entry) above

UCS15A
change of protein amounts in the cell lysate (Coomassie Brilliant Blue stained gel) [1]: Several proteins, which decreased their amounts with the increase of UCS15A concentration, were observed
inhibitory activity on bone resorption [2]: has an inhibitory activity on bone resorption
inhibition of binding between src and Sam68 [3]: specifically inhibit the binding between src and Sam68
amount of Sam68 in the cell lysate (Western blotting) ([4]; UCS15A 0-300 μmol/L, endogenous protease, without protease inhibitor): the amount of Sam68 in the cell lysate decreased with the increase of the UCS15A concentration
amount of Sam68 in the cell lysate with protease inhibitor (Western blotting) ([4]; protease inhibitor cocktail (Complete) added along with UCS15A): the decrease of the amount of Sam68 in the cell lysate was inhibited by the addition of a protease inhibitor
inhibition of signal transduction of tyrosine kinase src [5]: inhibit the signal transduction of tyrosine kinase src
inhibition of enzyme activity of src [6]: not to inhibit the enzyme activity of src
